Results from patent US11123359B2, “Methods and materials for treating hematological malignancies” (Mayo Foundation for Medical Education and Research, priority 2013, dated 2021).
[nps] = N3'-P5' thiophosphoramidate linkage (3'-amino-3'-deoxy nucleosides); {Palm} = O-[2-hydroxy-3-(hexadecanoylamino)propyl] group (palmitoyl lipid)

Assays:
[1] = system: mononuclear cell telomerase activity; assay: Laboratory correlative study: mononuclear cell telomerase activity; type: in vivo, human; conditions: treated myelofibrosis patients
Procedure: (§1) Imetelstat sodium was administered by a 2-hour intravenous infusion (9.4 mg/kg) every three weeks (cohort A) or weekly×3 followed by every three weeks (cohort B). In addition, patient samples were screened for mutations in ASXL1, SRSF2, SF3B1, and U2AF1 by DNA sequencing. Quantitative PCR was used to measure JAK2V617F burden (assay sensitivity 0.01%). Laboratory correlative studies included analyses of granulocyte telomere length, mononuclear cell telomerase activity, and the presence of human telomerase reverse transcriptase (hTERT) isoforms.

[2] = system: granulocyte telomere length; assay: Laboratory correlative study: granulocyte telomere length; type: in vivo, human; conditions: treated myelofibrosis patients
Procedure: as §1

[3] = system: patients with high or intermediate-2 risk myelofibrosis; assay: Clinical study (NCT01731951): adverse events by common terminology criteria (Version 4.03); type: in vivo, human
Procedure: (§2) In an investigator-sponsored single-center study (ClinicalTrials.gov, Identifier: NCT01731951), imetelstat sodium was administered to patients with high or intermediate-2 risk myelofibrosis. Adverse events were monitored by common terminology criteria (Version 4.03), and responses were monitored by the International Working Group criteria. Eligibility criteria included platelets≥50×10^9/L.
as §1
(§3) Thirty-three patients were accrued. The first 18 patients who were enrolled and followed for a minimum of three months or discontinued were assessed herein: eleven for cohort A, and seven for cohort B; 44% primary myelofibrosis, 33% post-PV myelofibrosis and 22% post-ET myelofibrosis. The median age was 68 years, and the baseline risk was high in 56% of the patients and intermediate-2 in 44% of the patients. Seven patients were transfusion-dependent. Median spleen size was 13 cm, and eleven patients had constitutional symptoms. Karyotype was abnormal in seven patients, and 89% were JAK2-mutated. Fifteen patients (83%) were previously treated, including seven with a JAK inhibitor and three with pomalidomide.

[4] = system: human telomerase reverse transcriptase (hTERT) isoforms; assay: Laboratory correlative study: human telomerase reverse transcriptase (hTERT) isoforms; type: in vivo; conditions: treated myelofibrosis patients
Procedure: as §1

[5] = system: patients with high or intermediate-2 risk myelofibrosis; assay: Investigator-sponsored single-center clinical study (NCT01731951): responses by International Working Group criteria; type: in vivo, human
Procedure: as §2, §1, §3

[6] = cohort A (9.4 mg/kg every three weeks)
[7] = cohort B (9.4 mg/kg weekly x3 followed by every three weeks)
[8] = first 18 patients, 9.4 mg/kg iv

Question: How did the “effect on telomerase activity” value [1] turn out when “5′-[O-[2-hydroxy-3-[(1-oxohexadecyl)amino]propyl] phosphorothioate]-d(3′-amino-3′-deoxy-P-thio)(T-A-G-G-G-T-T-A-G-A-C-A-A) (SEQ ID NO:1) sodium salt (13) (TAGGGTTAGACAA; all [nps], 5' {Palm}*, sugars by position and methylation of C not given here; 3'-amino-3'-deoxy nucleosides, sodium salt) [imetelstat sodium, sodium salt of imetelstat, a synthetic lipid-conjugated, 13-mer oligonucleotide N3′ P5′-thio-phosphoramidate]” was run?
Answer: Its value is “suppression of telomerase activity”.

Question: What about the “effect on telomere length” value [2] of the same substance?
Answer: The value was “shortening of telomere length”.

Question: What about the grade-3 anemia [3, 6] of the same substance?
Answer: Its grade-3 anemia is 9%.

Question: What about the grade-3 thrombocytopenia [3, 6] of the same substance?
Answer: The grade-3 thrombocytopenia was 27%.

Question: What about the “grade-4 treatment-related adverse events” value [3, 6] of the same substance?
Answer: Its value is “no grade-4 treatment-related adverse events”.

Question: What about the grade-3 anemia [3, 7] of the same substance?
Answer: The grade-3 anemia was “one”.

Question: And the grade-3 neutropenia [3, 7]?
Answer: Its grade-3 neutropenia is “one”.

Question: What about the grade-3 thrombocytopenia [3, 7] of the same substance?
Answer: Its grade-3 thrombocytopenia is “one”.

Question: What about the grade-4 thrombocytopenia [3, 7] of the same substance?
Answer: Its grade-4 thrombocytopenia is 29%.

Question: What about the “dose reduction necessary because of grade 3 or 4 myelosuppression” value ([3]; first 18 patients) of the same substance?
Answer: The value was 11%.

Question: What about the “patients remaining on treatment” value ([3]; median follow-up of 3.2 months, first 18 patients) of the same substance?
Answer: Its value is 89%.

Question: And the grade-3/4 myelosuppression ([3]; patients with an unmutated spliceosome genotype)?
Answer: The grade-3/4 myelosuppression was 25%.

Question: And the grade-3/4 myelosuppression ([3]; spliceosome-mutated patients)?
Answer: The grade-3/4 myelosuppression was 67%.

Question: What about the “effect on hTERT isoform pattern” value [4] of the same substance?
Answer: Its value is “alteration of the hTERT isoform pattern”.

Question: What about the complete molecular responses ([5]; CR patients, U2AF1Q157P and 10% JAK2V617F, SF3B1K666E and 50% JAK2V617F) of the same substance?
Answer: Its complete molecular responses is “two”.

Question: And the “reduction in U2AF1 469_insAGTATG mutation” value ([5]; a third CR patient)?
Answer: Its value is > 50%.

Question: And the “patients with leukocytosis who normalized their count or had a >50% reduction” value ([5]; among thirteen patients with leukocytosis)?
Answer: Its value is 77%.

Question: And the “CR patients transfusion-dependent at baseline who became transfusion-independent” value ([5]; first 18 patients)?
Answer: The value was “Two”.

Question: And the “complete or partial resolution of leukoerythroblastosis” value ([5]; first 18 patients)?
Answer: Its value is 61%.

Question: What about the overall response rate ([5]; first 18 patients, 9.4 mg/kg 2-hour intravenous infusion, cohorts A and B) of the same substance?
Answer: Its overall response rate is 44%.

Question: What about the “CR patients with reversal of bone marrow fibrosis and recovery of normal megakaryocyte morphology” value [5, 8] of the same substance?
Answer: Its value is 22%.

Question: What about the “partial response (PR), number of patients” value [5, 8] of the same substance?
Answer: Its value is 1 patients.

Question: And the “patients who met the bone marrow and peripheral blood morphologic criteria for complete response (CR) or partial response (PR)” value [5, 8]?
Answer: The value was 28%.

Question: And the “patients with clinical improvement” value ([5]; first 18 patients, pending validation of response duration and resolution of drug-induced grade-1 thrombocytopenia)?
Answer: The value was “three”.

Question: And the “patients achieving CR” value ([5]; six patients with a spliceosome mutated genotype)?
Answer: The value was 50%.

Question: What about the “patients achieving CR” value ([5]; twelve patients with an unmutated spliceosome genotype) of the same substance?
Answer: The value was 8%.

Question: For “imetelstat: telomerase inhibitor; synthetic lipid-conjugated, 13-mer oligonucleotide N3′ P5′-thio-phosphoramidate (DNA TAGGGTTAGACAA; listed as DNA, chemistry not fully specified)”, which “likelihood of complete or partial remission” value ([5]; ASXL1-mutated cases among the 33 study patients) is on record?
Answer: The value was 0%.

Question: And the “likelihood of complete or partial remission” value ([5]; ASXL1-unmutated cases among the 33 study patients)?
Answer: Its value is 36%.
